Source: patent US20090137667A1, “Pesticide Delivery System” (priority 2006, published 2009)
Read-outs that look alike come from different tables or passages of the source.

Tests used:
[1] = log P measured by the procedure of Donovan and Pescatore, internally standardized with toluene and triphenylene; assay type: physicochemical
Description: Compositions of herbicides were prepared using melts of mixtures of nonionic block copolymer and ethoxylated surfactants. Specifically, tristyrylphenol etoxylate (Soprophor BSU, Rhodia) was used in combination with Pluronic P123 (PEO20-PPO69-PEO20). The list of the herbicides and corresponding log P values (the log P values were measured according procedure described by Donovan and Pescatore, J Chromatography A 2002, 952, 47-61) are presented in Table 22. All log P values were measured at pH 7, except for clethodim, measured at pH 2. First, a stock blend of Pluronic P123 and Soprophor BSU was prepared by melting together 50 g of Pluronic P123 with 50 g of Soprophor BSU at 70° C. to form a clear, homogeneous melt. Composition of the […]

[2] = Particle size of aqueous dispersions by dynamic light scattering; assay type: physicochemical; details: Table 14, microblend with Pluronic P123:Soprophor BSU 1:1, insecticide 4.5 mg/ml, after 2 hours, Nanotrac 250
Description: The suspensions were shaken for 40 h at room temperature followed by centrifugation for 10 min at 13,000 rpm. The concentration of Bifenthrin in the supernatants was determined by UV-spectroscopy. For this purpose, standard solutions containing from 0 to 0.58 mg/ml of Bifenthrin in ethanol were prepared using a stock solution of Bifenthrin in acetonitrile with concentration of 8.7 mg/ml. These solutions were used to obtain a calibration curve by measuring an absorbance at 260 nm using Perkin-Elmer Lambda 25 spectrophotometer. […]
Compositions of insecticides were prepared using melts of mixtures of nonionic block copolymer and ethoxylated surfactants. Specifically, tristyrylphenol etoxylate (Soprophor BSU, Rhodia) was used in combination with Pluronic P123 (PEO20-PPO69-PEO20). 250 mg of Pluronic P123 were mixed with 250 mg of Soprophor BSU, and 50 mg of fine powder of the insecticide, and were melted together for 1 hour. The composition of the copolymer/surfactant mixture was P123:Soprophor=1:1 by weight. The feeding copolymer/surfactant:insecticide ratio was 10:1. The melted compositions were cooled down to room temperature. […] 50 mg of the composition was rehydrated in 1 ml of water upon shaking for 1 hour. The total concentration of copolymer/surfactant components in the mixture was ca. 4.6%. The targeted content of insecticide in the microblend dispersion was 4.5 mg/ml.

[3] = cited from earlier work; for Log P: as referred in The Pesticide Manual, 11th edition (Table 18)
[4] = Soil mobility by soil thin layer chromatography (s-TLC); assay type: physicochemical; details: Example 50, 14C-bifenthrin, 10% aqueous dispersions, water eluant
Description: The evaluation of the soil mobility of the bifenthrin microblends according to the invention was performed using soil thin layer chromatography (s-TLC). Air-dried greenhouse topsoil, sieved to pass through with a 250 μm sieve was used to prepare s-TLC plates. Thirty mL of distilled water was added to 60 g of the sieved soil and the mixture was thoroughly grounded until a smooth, moderately fluid slurry was obtained. The soil slurry was quickly spread evenly across a clean grooved glass plate. Plates contained 9×1 cm channels cut to a depth of 2 mm, with the channels spaced 1 cm apart. Plates were allowed to dry at room temperature over 24 hours. A horizontal line was scribed 12.5 cm above the plate base through the soil layer before the soil dried completely. Bifenthrin microblends used in these experiments were prepared using a bifenthrin sample spiked with ^14C-radiolabeled bifenthrin to achieve reasonable sensitivity. Aqueous dispersions of microblends with concentrations of 10% were used in these experiments. Aliquots of each radiolabeled microblend were spotted 1.5 cm above the plate base. ^14C-labeled sulfentrazone and suspension of ^14C-labeled bifenthrin were used as controls. […]
The s-TLC were then scanned for 2 hours using a Packard InstantImager™ TLC plate scanner. Rf values were determined from the images obtained using the following equation (1): […]

[5] = Stability and appearance of aqueous dispersions on storage; assay type: physicochemical; details: Table 14, microblend with Pluronic P123:Soprophor BSU 1:1, storage at room temperature
[6] = pH 2, pH = 2, based on logP assigned to toluene 2.605 and triphenylene 6.266, read-out: logP, Average
[7] = pH 7, pH = 7, based on logP assigned to toluene 2.605 and triphenylene 6.266, read-out: logP, Average
[8] = pH = 2, based on logP assigned to toluene 2.605 and triphenylene 6.266
[9] = pH = 7, based on logP assigned to toluene 2.605 and triphenylene 6.266
[10] = pH 7, measured at pH 7 (Table 22), read-out: Log P

CCCCC(C#N)(Cn1cncn1)c1ccc(Cl)cc1 (centres unmarked) [Myclobutanil]
chromatographic logP [1, 6]: 2.44 | chromatographic logP [1, 7]: 2.8

Dinocap
Log P ([1]; measured at pH 7 (Table 22)): 5.43 | logP, Average [1, 8]: 5.457 | logP, Average [1, 9]: 5.428

CCCCC(O)(Cn1cncn1)c1ccc(Cl)cc1Cl (centres unmarked) [Hexaconazole]
chromatographic logP ([1]; pH 2, logP, Average): 3.35 | chromatographic logP ([1]; pH 7, logP, Average): 3.31

C#CCOC(=O)[C@@H](C)Oc1ccc(Oc2ncc(Cl)cc2F)cc1 [Clodinofop-Propargyl]
logP, Average [1, 8]: 4.519 | logP, Average [1, 9]: 4.522

Cc1c(COC(=O)[C@@H]2[C@H](/C=C(\Cl)C(F)(F)F)C2(C)C)cccc1-c1ccccc1 (racemic) [Bifenthrin]
Particle size (nm) [2]: 14 nm | n-octanol partition coefficient, logP ([3]; crude Bifenthrin): > 6 | Rf [4]: 0.00 | Dispersion appearance in 24 hours [5]: clear

Cc1nn(-c2cc(NS(C)(=O)=O)c(Cl)cc2Cl)c(=O)n1C(F)F [Sulfentrazone]
Rf [4]: 1.0

CC1(C)CON(Cc2ccccc2Cl)C1=O [Clomazone]
Log P [3]: 2.5

CCOC(=O)C(Cl)Cc1cc(-n2nc(C)n(C(F)F)c2=O)c(F)cc1Cl (centres unmarked) [Carfentrazone-ethyl]
Log P [3]: 3.36 | chromatographic logP [1, 6]: 3.99 | chromatographic logP [1, 7]: 4.02

N#CC(CCc1ccc(Cl)cc1)(Cn1cncn1)c1ccccc1 (centres unmarked) [Febenuconazole]
logP, Average [1, 8]: 3.716 | logP, Average [1, 9]: 3.730

CO/C=C(/C(=O)OC)c1ccccc1Oc1cc(Oc2ccccc2C#N)ncn1 [Azoxystrobin]
logP, Average [1, 8]: 3.074 | logP, Average [1, 9]: 3.050

Trisulfuron-methyl
logP, Average [1, 8]: 3.542 | logP, Average [1, 9]: 0.510

FC(F)(F)c1ccc(OCCCOc2c(Cl)cc(OCC=C(Cl)Cl)cc2Cl)nc1 [Pyridalyl]
Particle size (nm) [2]: 14 nm | Dispersion appearance in 24 hours [5]: clear

N#Cc1nn(-c2c(Cl)cc(C(F)(F)F)cc2Cl)c(N)c1[S+]([O-])C(F)(F)F (centres unmarked) [Fipronil]
Particle size (nm) [2]: 13 nm | Dispersion appearance in 24 hours [5]: clear

Abamectin
Particle size (nm) [2]: 13 nm | Dispersion appearance in 24 hours [5]: clear

CCCSP(=O)(OCC)Oc1ccc(Br)cc1Cl (centres unmarked) [Profenofos]
Particle size (nm) [2]: 13 nm | Dispersion appearance in 24 hours [5]: clear

CCCCCCCC(=O)Oc1c(I)cc(C#N)cc1I [Ioxynil Octanoate]
chromatographic logP [1, 6]: 5.67 | chromatographic logP [1, 10]: 5.6 | chromatographic logP [1, 7]: 5.6

CCC(CC)Nc1c([N+](=O)[O-])cc(C)c(C)c1[N+](=O)[O-] [Pendimethalin]
Log P [3]: 5.18

Spinosad
Particle size (nm) [2]: 13 nm | Dispersion appearance in 24 hours [5]: clear

CCCOC/C(=N\c1ccc(Cl)cc1C(F)(F)F)n1ccnc1 [Triflumizole]
chromatographic logP ([1]; pH 2, logP, Average): 2.6 | chromatographic logP [1, 7]: 3.89

COC[C@H](C)N(C(=O)CCl)c1c(C)csc1C [Dimethenamid-P]
Log P [3]: 2.05

CCCCOCN(C(=O)CCl)c1c(CC)cccc1CC [Butachlor]
chromatographic logP ([1]; pH 2, logP, Average): 4.12 | chromatographic logP ([1]; pH 7, Log P): 4.15 | chromatographic logP ([1]; pH 7, logP, Average): 4.15

CON(C)C(=O)Nc1ccc(Cl)c(Cl)c1 [Linuron]
Log P [3]: 3.00

COP(=S)(OC)Oc1c(Cl)cc(C)cc1Cl [Tolclofos-methyl]
chromatographic logP ([1]; pH 2, read-out: logP, Average): 4.42 | chromatographic logP ([1]; pH = 7, based on logP assigned to toluene 2.605 and triphenylene 6.266, read-out: logP, Average): 4.42

CCCN(CCC)c1c([N+](=O)[O-])cc(C(F)(F)F)c(N)c1[N+](=O)[O-] [Prodiamine]
Log P [3]: 4.10

CC1(C)C(C=C(Cl)Cl)C1C(=O)OC(C#N)c1cccc(Oc2ccccc2)c1 (centres unmarked) [Cypermethrin]
Particle size (nm) [2]: 14 nm | Dispersion appearance in 24 hours [5]: clear

O=[N+]([O-])c1c(Cl)c(Cl)c(Cl)c(Cl)c1Cl [Pentachloronitrobenzene]
chromatographic logP [1, 6]: 5.39 | chromatographic logP [1, 7]: 5.34

CCC(CC)Nc1c([N+](=O)[O-])cc(C)c(C)c1[N+](=O)[O-] [Prowl]
logP, Average [1, 8]: 5.108 | logP, Average [1, 9]: 5.101

CCCC1COC(Cn2cncn2)(c2ccc(Cl)cc2Cl)O1 (centres unmarked) [Propiconazole]
chromatographic logP [1, 6]: 3.3 | chromatographic logP [1, 7]: 3.29

COC(=O)N(OC)c1ccccc1COc1ccn(-c2ccc(Cl)cc2)n1 [Pyraclostrobin]
chromatographic logP [1, 6]: 4.53 | chromatographic logP [1, 7]: 4.49

CC(C)(C)C(O)(CCc1ccc(Cl)cc1)Cn1cncn1 (centres unmarked) [Tebuconazole]
chromatographic logP [1, 6]: 3.44 | chromatographic logP [1, 7]: 3.49

CCSC(C)CC1CC(=O)C(/C(CC)=N/OC/C=C/Cl)=C(O)C1 (centres unmarked) [Clethodim]
chromatographic logP ([1]; pH 2, measured at pH 2 (Table 22), read-out: Log P): 4.24 | chromatographic logP [1, 6]: 4.25 | chromatographic logP [1, 7]: 0.813

CCCCOC(=O)C(C)Oc1ccc(Oc2ccc(C(F)(F)F)cn2)cc1 (centres unmarked) [Fluazifop-butyl]
chromatographic logP ([1]; pH 2, logP, Average): 4.44 | chromatographic logP ([1]; pH 7, Log P): 4.42 | chromatographic logP ([1]; pH 7, logP, Average): 4.42

Cc1ccc(N(SC(F)(Cl)Cl)S(=O)(=O)N(C)C)cc1 [Tolyfluanid]
logP, Average [1, 8]: 3.934 | logP, Average [1, 9]: 3.930

O=C(Nc1ccc(F)cc1F)c1cccnc1Oc1cccc(C(F)(F)F)c1 [Diflufenican]
chromatographic logP [1, 6]: 4.81 | chromatographic logP [1, 10]: 4.76 | chromatographic logP [1, 7]: 4.76

OC(Cn1cncn1)(c1ccc(F)cc1)c1ccccc1F (centres unmarked) [Flutriafol]
chromatographic logP ([1]; pH 2, logP, Average): 2.12 | chromatographic logP ([1]; pH 7, logP, Average): 2.04

N#Cc1c(Cl)c(Cl)c(Cl)c(C#N)c1Cl [Chlorthalonil]
logP, Average [1, 8]: 4.357 | logP, Average [1, 9]: 4.234

O=[N+]([O-])c1cc(C(F)(F)F)c(Cl)c([N+](=O)[O-])c1Nc1ncc(C(F)(F)F)cc1Cl [Fluazinam]
chromatographic logP [1, 6]: 5.03 | chromatographic logP [1, 7]: 4.72

CSC(=O)c1c(C(F)F)nc(C(F)(F)F)c(C(=O)SC)c1CC(C)C [Dithiopyr]
chromatographic logP [1, 6]: 4.32 | chromatographic logP [1, 10]: 4.28 | chromatographic logP [1, 7]: 4.28

CCCN(CCC)c1c([N+](=O)[O-])cc(C(F)(F)F)cc1[N+](=O)[O-] [Trifluran]
chromatographic logP [1, 10]: 5.08 | logP, Average [1, 8]: 5.108 | logP, Average [1, 9]: 5.084
